The source made the active and inactive calls.
Columns and labels:
[1] = A Cell Based Secondary Assay To Explore Cytotoxicity of Compounds that Sensitize Mycobacterium Tuberculosis to Beta-Lactam Antibiotics.; format: functional
[2] = biological target: Cytochrome P450 2C19 (Homo sapiens, UniProt P33261); test: Cytochrome panel assay with activity outcomes. Panel member name: p450-cyp2c19 Compounds with AC50 equal or less than 10 uM are considered active; format: functional; settings: read-out: AC50
[3] = biological target: Cytochrome P450 2D6 (Homo sapiens, UniProt P10635);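 further: CYP2D6 member of a cytochrome P450 panel assay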
[4] = system: HeLa; test: viability loss in HeLa cells – cell-based, 24 h, cherry-picked samples, cytotoxicity control, dose response (AID 504726); format: functional; settings: Homo sapiens;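 further: potency for cytotoxicity as loss of luminescence signal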
[5] = viability loss in HeLa cells – cytotoxicity control for MgcRacGAP inhibitor project, dose response (AID 624300); format: functional
[6] = biological target: T1, Rac GTPase-activating protein 1 (Homo sapiens, UniProt Q9H0H5); test: blockers of MgcRacGAP-driven Rac1 GTP hydrolysis – biochemical, ADP Hunter fluorescence, primary and confirmatory, confirmation (AID 624330); format: functional
T1 sequence (Q9H0H5 whole entry): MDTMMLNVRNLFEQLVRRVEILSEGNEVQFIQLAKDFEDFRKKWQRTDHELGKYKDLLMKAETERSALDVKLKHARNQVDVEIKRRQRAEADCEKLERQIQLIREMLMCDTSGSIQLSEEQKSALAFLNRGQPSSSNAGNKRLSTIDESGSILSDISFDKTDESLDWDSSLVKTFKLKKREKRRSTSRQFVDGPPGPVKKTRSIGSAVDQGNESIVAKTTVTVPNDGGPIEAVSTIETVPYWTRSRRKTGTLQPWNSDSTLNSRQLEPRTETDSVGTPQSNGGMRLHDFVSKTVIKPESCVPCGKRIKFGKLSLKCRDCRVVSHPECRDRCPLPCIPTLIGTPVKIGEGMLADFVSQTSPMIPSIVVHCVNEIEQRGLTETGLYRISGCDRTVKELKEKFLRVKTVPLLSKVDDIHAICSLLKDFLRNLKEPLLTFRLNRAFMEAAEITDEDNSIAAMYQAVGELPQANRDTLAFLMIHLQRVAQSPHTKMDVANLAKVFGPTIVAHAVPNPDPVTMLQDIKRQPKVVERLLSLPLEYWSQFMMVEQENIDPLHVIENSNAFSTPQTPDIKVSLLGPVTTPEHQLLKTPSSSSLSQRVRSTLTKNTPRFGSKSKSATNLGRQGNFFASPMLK

[7] = viability inhibitors of stage V gametocytes – luminescence, dose response (AID 1117278); format: functional, cell-based;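 further: gametocytes exposed to compound for 24 hours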
[8] = viability loss in human Jurkat cells – cell-based, luminescence, cytotoxicity control for P. falciparum gametocyte viability project, dose response (AID 1117277); format: functional;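 further: potency reflects loss of cellular ATP meaning fewer viable cells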
[9] = Trypanosoma cruzi growth suppression in host cells – NIH3T3 host cells, beta-gal luminescence, confirmation (AID 2044); format: functional, cell-based;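 further: intracellular parasites grown in NIH/3T3 mouse fibroblasts as host cells; luminescent beta-galactosidase reporter signal from transgenic T. cruzi replicating inside host cells; inhibitors lower the luminescence signal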
[10] = biological target: T2, Calpain-2 catalytic subunit (Sus scrofa, UniProt P43367); test: m-calpain protease blockers, concentration series – biochemical, fluorogenic peptide substrate, dose response (AID 1420); format: functional
T2 sequence (P43367 whole entry): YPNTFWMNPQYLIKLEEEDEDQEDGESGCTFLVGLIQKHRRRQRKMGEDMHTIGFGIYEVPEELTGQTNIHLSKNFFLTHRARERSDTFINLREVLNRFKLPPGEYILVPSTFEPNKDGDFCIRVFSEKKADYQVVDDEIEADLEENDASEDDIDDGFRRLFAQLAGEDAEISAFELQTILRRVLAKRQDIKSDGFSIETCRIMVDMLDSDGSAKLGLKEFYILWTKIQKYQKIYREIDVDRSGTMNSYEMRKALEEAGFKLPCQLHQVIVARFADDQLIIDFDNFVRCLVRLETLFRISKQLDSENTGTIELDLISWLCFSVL

[11] = NIH3T3 cell viability loss – ATP luminescence, mouse fibroblasts, counter-screen, dose response (AID 2010); format: functional, cell-based;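 further: cells exposed to compound for about 90 hours before reading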
[12] = HIV-1 Vif–A3G interaction blockers – biochemical, TR-FRET, GST-Vif 1-94, biotin-A3G peptide, dose response retest, primary screen (AID 1117319); format: functional;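 further: TR-FRET signal of purified GST-Vif binding a biotinylated A3G peptide; inhibitors lower the FRET signal by blocking Vif and A3G binding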

Chain of Cytochrome P450 2C19 (P33261 whole entry): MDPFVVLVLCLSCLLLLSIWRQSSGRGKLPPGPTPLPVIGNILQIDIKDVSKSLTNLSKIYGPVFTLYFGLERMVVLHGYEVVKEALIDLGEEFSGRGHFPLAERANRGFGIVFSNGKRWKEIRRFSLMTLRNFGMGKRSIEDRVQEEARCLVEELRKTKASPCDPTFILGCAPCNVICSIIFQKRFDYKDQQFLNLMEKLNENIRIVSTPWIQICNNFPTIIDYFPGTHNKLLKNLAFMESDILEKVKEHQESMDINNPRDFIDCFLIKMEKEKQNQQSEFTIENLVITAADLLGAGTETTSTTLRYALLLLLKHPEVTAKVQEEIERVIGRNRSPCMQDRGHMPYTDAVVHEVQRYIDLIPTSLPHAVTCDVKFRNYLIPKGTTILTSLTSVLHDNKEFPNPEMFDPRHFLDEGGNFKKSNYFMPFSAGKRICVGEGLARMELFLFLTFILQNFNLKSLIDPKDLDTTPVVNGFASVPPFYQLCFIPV
Chain of Cytochrome P450 2D6 (P10635 whole entry): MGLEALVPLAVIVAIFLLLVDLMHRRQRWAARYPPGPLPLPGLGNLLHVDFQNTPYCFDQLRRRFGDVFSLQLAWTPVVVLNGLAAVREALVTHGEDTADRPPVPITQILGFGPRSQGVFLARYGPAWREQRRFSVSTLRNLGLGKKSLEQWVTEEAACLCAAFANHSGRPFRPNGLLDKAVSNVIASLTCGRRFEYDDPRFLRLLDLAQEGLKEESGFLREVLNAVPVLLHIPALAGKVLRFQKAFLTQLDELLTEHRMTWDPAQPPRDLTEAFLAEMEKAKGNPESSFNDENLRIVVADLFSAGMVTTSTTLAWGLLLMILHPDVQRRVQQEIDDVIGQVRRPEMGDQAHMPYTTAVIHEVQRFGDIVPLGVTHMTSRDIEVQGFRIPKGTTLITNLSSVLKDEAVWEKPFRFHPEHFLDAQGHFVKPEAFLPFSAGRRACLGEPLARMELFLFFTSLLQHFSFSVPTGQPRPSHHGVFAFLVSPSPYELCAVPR

Question: What does the source list for `Cc1[nH]c2c(C)cccc2c1CCNC(=O)c1ccc2c(c1[N+](=O)[O-])C(=O)c1ccccc1C2=O`?
Answer: CC50 [1]: 17.2 µM (active); AC50 [2]: 398 nM (inconclusive); AC50 [3]: 2 µM (inconclusive)

Question: Which AC50 [4] does the source give for `N#C/C(=C\c1ccc(-c2ccccc2[N+](=O)[O-])o1)C(N)=O` here?
Answer: 83.5 µM (active)

Question: For `Cc1ccc(CN2CCN(Cc3ccccc3C(F)(F)F)CC2)cc1`, which CC50 [5] is on record?
Answer: 100 µM (active)

Question: What about the IC50 [6] of the same compound?
Answer: 40.4 µM (active)

Question: Which results are given for `C1CCN(CCCNC2C3CC4CC(C3)CC2C4)C1` (centres undefined)?
Answer: IC50 [7]: > 109 µM (inactive); IC50 [8]: > 83.3 µM (inactive)

Question: Which results are given for `CCS(=O)(=O)NCC(c1cccnc1)N1CCN(c2ccc(OC)cc2)CC1` (centres undefined)?
Answer: EC50 [9]: 916 nM (active); IC50 [10]: 24.7 µM (not active); EC50 [11]: 22 µM (active)

Question: For `Oc1nc(-c2ccccc2Cl)nc2c1sc(=S)n2-c1ccccc1`, which IC50 [10] is on record?
Answer: 41.7 µM (not active)

Question: With `COc1ccc(CN2CCN(Cc3ccccc3)CC2)c(OC)c1` as the compound, how does the IC50 [7] read?
Answer: > 109 µM (inactive)

Question: And the IC50 [8]?
Answer: > 83.3 µM (inactive)

Question: For `COC(=O)C1=C(c2ccc(OC(F)(F)F)cc2)C[C@@H]2CC[C@H]1N2C(=O)NC1CCCCC1`, which AC50 [4] is on record?
Answer: > 350 µM (inactive)

Question: Which IC50 [12] does the source give for `Cc1ccc(N=Nc2ccc(N)cc2C)c(S(N)(=O)=O)c1` here?
Answer: > 100 µM (active)

Question: Which IC50 [7] does the source give for `Cc1cc(C(=O)NCc2cccnc2)no1` here?
Answer: > 109 µM (inactive)

Question: What about the IC50 [8] of the same compound?
Answer: > 83.3 µM (inactive)

Question: With `CCn1c(SCC(=O)n2c(C)c(C)c3ccccc32)nnc1-c1ccco1` as the compound, how does the IC50 [12] read?
Answer: > 100 µM (active)

Question: With `CCc1nc(C)ccc1OC(=O)C12CC3CC(CC(C3)C1)C2` as the compound, how does the IC50 [10] read?
Answer: 8.73 µM (not active)

Question: For `CN(Cc1nc(-c2cnccn2)no1)Cc1[nH]nc2c1CCCC2`, which IC50 [10] is on record?
Answer: 7.73 µM (not active)

Question: With `CCOc1cccc(SCc2noc(C(=O)NCC3CCCO3)c2C(=O)O)c1` (centres undefined) as the compound, how does the IC50 [12] read?
Answer: > 100 µM (active)

Question: Which results are given for `Cc1cc(Cl)cc(C)c1OCCOCCNCc1ccccc1`?
Answer: CC50 [5]: 100 µM (active); IC50 [6]: 128 µM (active)
